The test system of one experiment is LNCaP. Briefly: Growth stimulatory activity of human LNCAP cells. The format is functional, cell-based.
The test system of another experiment is SC-3. The experiment is described as follows: Growth inhibition of mouse SC3 cells after 3 days by WST-8 assay. The format is functional, cell-based. As to conditions: SC-3, 72 h. A general note: Tetrazolium dyes change colour on reduction, which living cells bring about.

Data on three molecules can be found in ChEMBL document CHEMBL1177715, “Design and synthesis of androgen receptor full antagonists bearing a p-carborane cage: promising ligands for anti-androgen withdrawal syndrome” (J Med Chem, 2010).

The source made the active and inactive calls. The rule behind the calls is not given here.

As for `CC(C)(O)C(=O)Nc1ccc([N+](=O)[O-])c(C(F)(F)F)c1` [HYDROXYFLUTAMIDE], in the experiment with LNCaP, the outcome was Active. Moreover, in the experiment on SC-3, the IC50 (usually the concentration that inhibits the measured activity by half) is 240 nM.
Consider `C[C@](O)(CS(=O)(=O)c1ccc(F)cc1)C(=O)Nc1ccc(C#N)c(C(F)(F)F)c1` [(R)-BICALUTAMIDE], for which, in the experiment with SC-3, the IC50 was 140 nM.
For the molecule `CC(C)C(=O)Nc1ccc([N+](=O)[O-])c(C(F)(F)F)c1` [FLUTAMIDE], the outcome in the experiment with LNCaP was Active. Besides, half-maximal inhibition with SC-3 (IC50) required 720 nM.
